System: LNCaP cells
Assay: Gene expression in bicalutamide-treated vs untreated LNCaP cells (subtraction library, Gene Expression Micro-Array)
Format: cell-based
Conditions: 25 hours

CC(O)(CS(=O)(=O)c1ccc(F)cc1)C(=O)Nc1ccc(C#N)c(C(F)(F)F)c1 (stereo not shown) [bicalutamide, Bicalutamide]
4 fold: FOLD INCREASE IN mRNA: 78 KD Glucose regulated protein precursor {366350} (SEQ ID NO 140, 100 nM bicalutamide)
3.2 fold: FOLD INCREASE IN mRNA: Glucosamine-fructose-6-phosphate aminotransferase {469633} (SEQ ID NO 68, 100 nM bicalutamide) | FOLD INCREASE IN mRNA: Vascular endothelial growth factor (VEGF (165)) {488697} (SEQ ID NO 148, 100 nM bicalutamide)
11.5 fold: FOLD INCREASE IN mRNA: Activating transcription factor 3 (ATF3) {428248} (SEQ ID NO 42, 100 nM bicalutamide)
3.1 fold: FOLD INCREASE IN mRNA: Aspartate aminotransferase {417270} (SEQ ID NO 65, 100 nM bicalutamide) | FOLD INCREASE IN mRNA: ADP-ribosylation factor 1 {471384} (SEQ ID NO 69, 100 nM bicalutamide) | FOLD INCREASE IN mRNA: Prion protein (PrP) {470074} (SEQ ID NO 71, 100 nM bicalutamide) | FOLD INCREASE IN mRNA: Fatty aldehyde dehydrogenase {208950} (SEQ ID NO 83, 100 nM bicalutamide) | FOLD INCREASE IN mRNA: ESTs {50914} (SEQ ID NO 149, 100 nM bicalutamide) | FOLD INCREASE IN mRNA: ESTs {279847} (SEQ ID NO 150, 100 nM bicalutamide) | FOLD INCREASE IN mRNA: ESTs {361548} (SEQ ID NO 151, 100 nM bicalutamide) | FOLD INCREASE IN mRNA: ESTs {364730} (SEQ ID NO 152, 100 nM bicalutamide) | FOLD INCREASE IN mRNA: ESTs {470212} (SEQ ID NO 153, 100 nM bicalutamide) | FOLD INCREASE IN mRNA: ESTs {471210} (SEQ ID NO 154, 100 nM bicalutamide)
3.5 fold: FOLD INCREASE IN mRNA: Unknown human protein {512334} (SEQ ID NO 50, 100 nM bicalutamide) | FOLD INCREASE IN mRNA: ESTs {126530} (SEQ ID NO 146, 100 nM bicalutamide) | FOLD INCREASE IN mRNA: ESTs {429327} (SEQ ID NO 147, 100 nM bicalutamide)
5.3 fold: FOLD INCREASE IN mRNA: ORF and HepG2 (identical sequence) {510258} (SEQ ID NO 53, 100 nM bicalutamide) | FOLD INCREASE IN mRNA: KIAA0025 and PIGHEP3 homologous region {418227} (SEQ ID NO 67, 100 nM bicalutamide)
6.4 fold: FOLD INCREASE IN mRNA: Phosphotyrosine independent ligand p62 for the Lck SH2 domain {471392} (SEQ ID NO 138, 100 nM bicalutamide)
4.1 fold: FOLD INCREASE IN mRNA: Glutamate-cysteine ligase regulatory subunit {245939} (SEQ ID NO 82, 100 nM bicalutamide)
3.7 fold: FOLD INCREASE IN mRNA: NADPH-flavin reductase {365775} (SEQ ID NO 63, 100 nM bicalutamide) | FOLD INCREASE IN mRNA: ESTs {322080} (SEQ ID NO 143, 100 nM bicalutamide)
5.9 fold: FOLD INCREASE IN mRNA: 150 kDa oxygen-regulated protein ORP150 {486858} (SEQ ID NO 139, 100 nM bicalutamide)
2.7 fold: FOLD INCREASE IN mRNA: Protein translation factor SUI1 homolog {365542} (SEQ ID NO 62, 100 nM bicalutamide) | FOLD INCREASE IN mRNA: OS-9 precursor {417136} (SEQ ID NO 66, 100 nM bicalutamide) | FOLD INCREASE IN mRNA: ESTs {31943} (SEQ ID NO 161, 100 nM bicalutamide) | FOLD INCREASE IN mRNA: ESTs {376271} (SEQ ID NO 162, 100 nM bicalutamide) | FOLD INCREASE IN mRNA: ESTs {469642} (SEQ ID NO 163, 100 nM bicalutamide) | FOLD INCREASE IN mRNA: ESTs {471826} (SEQ ID NO 164, 100 nM bicalutamide) | FOLD INCREASE IN mRNA: KIAA0262 {485008} (SEQ ID NO 165, 100 nM bicalutamide)
3.9 fold: FOLD INCREASE IN mRNA: Smad 1 {345928} (SEQ ID NO 141, 100 nM bicalutamide)
6.7 fold: FOLD INCREASE IN mRNA: KIAA0025 gene {30476} (SEQ ID NO 137, 100 nM bicalutamide)
11.1 fold: FOLD INCREASE IN mRNA: GADD 153 = Growth arrest and DNA-damage inductor gene {362009} (SEQ ID NO 136, 100 nM bicalutamide)
2.3 fold: FOLD INCREASE IN mRNA: pM5 {509550} (SEQ ID NO 56, 100 nM bicalutamide) | FOLD INCREASE IN mRNA: Archain {488510} (SEQ ID NO 57, 100 nM bicalutamide) | FOLD INCREASE IN mRNA: Translation initiation factor 5 (elF5) {299843} (SEQ ID NO 78, 100 nM bicalutamide) | FOLD INCREASE IN mRNA: RESTIN {291620} (SEQ ID NO 79, 100 nM bicalutamide) | FOLD INCREASE IN mRNA: MHC class I HLA-Bw58 gene {203448} (SEQ ID NO 84, 100 nM bicalutamide) | FOLD INCREASE IN mRNA: ESTs {44551} (SEQ ID NO 181, 100 nM bicalutamide) | FOLD INCREASE IN mRNA: ESTs {245853} (SEQ ID NO 182, 100 nM bicalutamide) | FOLD INCREASE IN mRNA: ESTs {306075} (SEQ ID NO 183, 100 nM bicalutamide) | FOLD INCREASE IN mRNA: ESTs {322143} (SEQ ID NO 184, 100 nM bicalutamide) | FOLD INCREASE IN mRNA: ESTs {322749} (SEQ ID NO 185, 100 nM bicalutamide) | FOLD INCREASE IN mRNA: ESTs {359877} (SEQ ID NO 186, 100 nM bicalutamide) | FOLD INCREASE IN mRNA: ESTs {360446} (SEQ ID NO 187, 100 nM bicalutamide) | FOLD INCREASE IN mRNA: ESTs {360789} (SEQ ID NO 188, 100 nM bicalutamide) | FOLD INCREASE IN mRNA: Protein tyrosine kinase t-Rorl {418257} (SEQ ID NO 189, 100 nM bicalutamide) | FOLD INCREASE IN mRNA: ESTs {486712} (SEQ ID NO 190, 100 nM bicalutamide) | FOLD INCREASE IN mRNA: ESTs {489106} (SEQ ID NO 191, 100 nM bicalutamide)
2.5 fold: FOLD INCREASE IN mRNA: Peptidyl-prolyl CIS-trans isomerase B precursor {376399} (SEQ ID NO 64, 100 nM bicalutamide) | FOLD INCREASE IN mRNA: Translocon-associated protein {324179} (SEQ ID NO 76, 100 nM bicalutamide) | FOLD INCREASE IN mRNA: Mitochondrial NDA (P)+ dependent malic enzyme {109375} (SEQ ID NO 85, 100 nM bicalutamide) | FOLD INCREASE IN mRNA: Immunogloblin light chain (lambda) {119218} (SEQ ID NO 168, 100 nM bicalutamide) | FOLD INCREASE IN mRNA: ELP-1 {147979} (SEQ ID NO 169, 100 nM bicalutamide) | FOLD INCREASE IN mRNA: TRAMP protein {149355} (SEQ ID NO 170, 100 nM bicalutamide) | FOLD INCREASE IN mRNA: ESTs {294078} (SEQ ID NO 171, 100 nM bicalutamide) | FOLD INCREASE IN mRNA: ESTs {291005} (SEQ ID NO 172, 100 nM bicalutamide) | FOLD INCREASE IN mRNA: ESTs {365907} (SEQ ID NO 173, 100 nM bicalutamide) | FOLD INCREASE IN mRNA: ESTs {427801} (SEQ ID NO 174, 100 nM bicalutamide) | FOLD INCREASE IN mRNA: ESTs {469515} (SEQ ID NO 175, 100 nM bicalutamide) | FOLD INCREASE IN mRNA: Tral mRNA for human homologue of murine tumor rejection antigen gp96 {509486} (SEQ ID NO 176, 100 nM bicalutamide)
4.3 fold: FOLD INCREASE IN mRNA: Seryl-tRNA synthetase {510431} (SEQ ID NO 48, 100 nM bicalutamide)
2.4 fold: FOLD INCREASE IN mRNA: CLCN3 {346749} (SEQ ID NO 46, 100 nM bicalutamide) | FOLD INCREASE IN mRNA: Mitochondrial serine hydroxymethyltransferase {344080} (SEQ ID NO 72, 100 nM bicalutamide) | FOLD INCREASE IN mRNA: Biotin-[propionyl-CoA-carboxylase (ATP-hydrolysing)] {176590} (SEQ ID NO 177, 100 nM bicalutamide) | FOLD INCREASE IN mRNA: Tral mRNA for human homologue of murine tumor rejection antigen gp96 {242829} (SEQ ID NO 178, 100 nM bicalutamide) | FOLD INCREASE IN mRNA: Cancellous bone osteoblast mRNA for GS3786 {486005} (SEQ ID NO 179, 100 nM bicalutamide) | FOLD INCREASE IN mRNA: ESTs {509583} (SEQ ID NO 180, 100 nM bicalutamide)
2.9 fold: FOLD INCREASE IN mRNA: Defender against cell death 1 {488974} (SEQ ID NO 43, 100 nM bicalutamide) | FOLD INCREASE IN mRNA: ESTs {428217} (SEQ ID NO 157, 100 nM bicalutamide)
4.5 fold: FOLD INCREASE IN mRNA: Cyclin-dependent kinase inhibitor 1 {268652} (SEQ ID NO 41, 100 nM bicalutamide)
3.6 fold: FOLD INCREASE IN mRNA: Glycyl-tRNA synthetase {471164} (SEQ ID NO 70, 100 nM bicalutamide) | FOLD INCREASE IN mRNA: Seryl-tRNA sythetase {129892} (SEQ ID NO 144, 100 nM bicalutamide) | FOLD INCREASE IN mRNA: HU-K4 {470677} (SEQ ID NO 145, 100 nM bicalutamide)
8.1 fold: FOLD INCREASE IN mRNA: 4F2 cell-surface antigen heavy chain {510504} (SEQ ID NO 54, 100 nM bicalutamide)
5.8 fold: FOLD INCREASE IN mRNA: Phosphotyrosine independent ligand p62 for the Lck SH2 domain {510278} (SEQ ID NO 47, 100 nM bicalutamide)
3 fold: FOLD INCREASE IN mRNA: ESTs {289300} (SEQ ID NO 155, 100 nM bicalutamide) | FOLD INCREASE IN mRNA: ESTs {427725} (SEQ ID NO 156, 100 nM bicalutamide)
2.6 fold: FOLD INCREASE IN mRNA: Thioredoxin reductase {510377} (SEQ ID NO 51, 100 nM bicalutamide) | FOLD INCREASE IN mRNA: Signal recognition particle receptor alpha subunit {358710} (SEQ ID NO 60, 100 nM bicalutamide) | FOLD INCREASE IN mRNA: Human clone 137308 {252491} (SEQ ID NO 81, 100 nM bicalutamide) | FOLD INCREASE IN mRNA: ESTs {292082} (SEQ ID NO 166, 100 nM bicalutamide) | FOLD INCREASE IN mRNA: ESTs {365557} (SEQ ID NO 167, 100 nM bicalutamide)
2.8 fold: FOLD INCREASE IN mRNA: Asparagine synthetase {510206} (SEQ ID NO 55, 100 nM bicalutamide) | FOLD INCREASE IN mRNA: Gravin {488106} (SEQ ID NO 58, 100 nM bicalutamide) | FOLD INCREASE IN mRNA: Transcription elongation factor S-II {257458} (SEQ ID NO 80, 100 nM bicalutamide) | FOLD INCREASE IN mRNA: rfp transforming protein {485268} (SEQ ID NO 158, 100 nM bicalutamide) | FOLD INCREASE IN mRNA: ESTs {487420} (SEQ ID NO 159, 100 nM bicalutamide) | FOLD INCREASE IN mRNA: 60S RIBOSOMAL PROTEIN L18A {509699} (SEQ ID NO 160, 100 nM bicalutamide)
3.4 fold: FOLD INCREASE IN mRNA: Phosphoenolpyruvate carboxykinase {363272} (SEQ ID NO 61, 100 nM bicalutamide)
3.8 fold: FOLD INCREASE IN mRNA: D53 (hD53) {510461} (SEQ ID NO 49, 100 nM bicalutamide) | FOLD INCREASE IN mRNA: Alanyl-TRNA synthetase {343998} (SEQ ID NO 73, 100 nM bicalutamide) | FOLD INCREASE IN mRNA: EST28g11 WATM1 {486703} (SEQ ID NO 142, 100 nM bicalutamide)

Source: patent US6506607B1, “Methods and compositions for the identification and assessment of prostate cancer therapies and the diagnosis of prostate cancer” (Millennium Pharmaceuticals, Inc., priority 1997, dated 2003)
